System: HIV-1 IIIB (T-tropic, CXCR4 utilizing)
Assay: HOS HIV-1 infectivity assay
Assay type: cell-based
Conditions: Human immunodeficiency virus 1, IIIB, read-out: Activity Level
Protocol: Compounds were profiled against two HIV-1 viruses, the M-tropic (CCR5 utilizing) Ba-L strain and the T-tropic (CXCR4 utilizing) IIIB strain. Both viruses were propagated in human peripheral blood lymphocytes. Compounds were tested for there ability to block infection of the HOS cell line (expressing hCXCR4/hCCR5/hCD4/pHIV-LTR-luciferase) by either HIV-1 Ba-L or HIV-1 IIIB. Compound cytotoxicity was also examined in the absence of virus addition.
HOS cells (expressing hCXCR4/hCCR5/hCD4/pHIV-LTR-luciferase) were harvested and diluted in Dulbeccos modified Eagles media supplemented with 2% FCS and non-essential amino acid to a concentration of 60,000 cells/ml. The cells were plated into 96-well plates (100 ul per well) and the plates were placed in a tissue culture incubator (37° C.; 5% CO2/95% air) for a period of 24 h.
Subsequently, 50 ul of the desired drug solution (4 times the final concentration) was added to each well and the plates were returned to the tissue culture incubator (37° C.; 5% CO2/95% air) for 1 h. Following this incubation 50 ul of diluted virus was added to each well (approximately 2 million RLU per well of virus). The plates were returned to the tissue culture incubator (37° C.; 5% CO2/95% air) and were incubated for a further 96 h.
Following this incubation the endpoint for the virally infected cultures was quantified following addition of Steady-Glo Luciferase assay system reagent (Promega, Madison, Wis.). Cell viability or non-infected cultures was measured using a CellTiter-Glo luminescent cell viability assay system (Promega, Madison, Wis.). All luminescent readouts are performed on a Topcount luminescence detector (Packard, Meridien, Conn.).

`CN(Cc1nc2c(C(=O)N3C[C@@H]4C[C@H]3CN4)cccc2[nH]1)C1CCCc2cccnc21` (stereo partly drawn) [Example 92, N-({4-[(1S,4S)-2,5-diazabicyclo[2.2.1]hept-2-ylcarbonyl]-1H-benzimidazol-2-yl}methyl)-N-methyl-5,6,7,8-tetrahydro-8-quinolinamine] showed an IC50 of less than 100 nM.

Same assay, conditions: Human immunodeficiency virus 1, IIIB; as determined by the infectivity assay; strain not stated in Table 2; read-out: Activity Level

First: CN(Cc1nc2c(C(=O)NCCc3cncn3C)cccc2[nH]1)C1CCCc2cccnc21 (stereo not drawn) [Example 67, N-[2-(1-methyl-1H-imidazol-5-yl)ethyl]-2-{[methyl(5,6,7,8-tetrahydro-8-quinolinyl)amino]methyl}-1H-benzimidazole-4-carboxamide]
Second: CN(Cc1nc2c(C(=O)NCCc3cccnc3)cccc2[nH]1)C1CCCc2cccnc21 (stereo not drawn) [Example 69, 2-{[Methyl(5,6,7,8-tetrahydro-8-quinolinyl)amino]methyl}-N-[2-(3-pyridinyl)ethyl]-1H-benzimidazole-4-carboxamide]
The IC50 of the first is lower: 100 to 500 nM for the first, 500 to 10000 nM for the second. The first is the more potent here.

Compared with `CN(Cc1nc2c(C(=O)N3CCN(Cc4ccccn4)CC3)cccc2[nH]1)C1CCCc2cccnc21` (stereo not drawn) [Example 68, N-Methyl-N-[(4-{[4-(2-pyridinylmethyl)-1-piperazinyl]-carbonyl}-1H-benzimidazol-2-yl)methyl]-5,6,7,8-tetrahydro-8-quinolinamine], `CN(Cc1nc2c(C(=O)NCCc3ccccn3)cccc2[nH]1)C1CCCc2cccnc21` (stereo not drawn) [Example 76, 2-{[Methyl(5,6,7,8-tetrahydro-8-quinolinyl)amino]methyl}-N-[2-(2-pyridinyl)ethyl]-1H-benzimidazole-4-carboxamide] is lower in IC50: 500 to 10000 nM for the first, 100 to 500 nM for the second. The second is the more potent here.

Compared with `CN(Cc1nc2c(C(=O)NCCc3ccncc3)cccc2[nH]1)C1CCCc2cccnc21` (stereo not drawn) [Example 71, 2-{[Methyl(5,6,7,8-tetrahydro-8-quinolinyl)amino]methyl}-N-[2-(4-pyridinyl)ethyl]-1H-benzimidazole-4-carboxamide], `CN(Cc1nc2c(C(=O)NCCCn3ccnc3)cccc2[nH]1)C1CCCc2cccnc21` (stereo not drawn) [Example 79, N-[3-(1H-Imidazol-1-yl)propyl]-2-{[methyl(5,6,7,8-tetrahydro-8-quinolinyl)amino]methyl}-1H-benzimidazole-4-carboxamide] is lower in IC50: 500 to 10000 nM for the first, less than 100 nM for the second. The second is the more potent here.

First: CN1CCN(CCCNC(=O)c2cccc3[nH]c(CN(C)C4CCCc5cccnc54)nc23)CC1 (stereo not drawn) [Example 73, N-[3-(4-Methyl-1-piperazinyl)propyl]-2-{[methyl(5,6,7,8-tetrahydro-8-quinolinyl)amino]methyl}-1H-benzimidazole-4-carboxamide]
Second: CN(Cc1nc2c(C(=O)NCCCN3CCOCC3)cccc2[nH]1)C1CCCc2cccnc21 (stereo not drawn) [Example 74, 2-{[Methyl(5,6,7,8-tetrahydro-8-quinolinyl)amino]methyl}-N-[3-(4-morpholinyl)propyl]-1H-benzimidazole-4-carboxamide]
The IC50 of the first is higher: 100 to 500 nM for the first, less than 100 nM for the second. The second is the more potent here.

Compared with `CN(Cc1nc2c(C(=O)NCc3nc4ccccc4[nH]3)cccc2[nH]1)C1CCCc2cccnc21` (stereo not drawn) [Example 75, N-(1H-Benzimidazol-2-ylmethyl)-2-{[methyl(5,6,7,8-tetrahydro-8-quinolinyl)amino]methyl}-1H-benzimidazole-4-carboxamide], `CN(Cc1nc2c(C(=O)NCCc3c[nH]c4ccccc34)cccc2[nH]1)C1CCCc2cccnc21` (stereo not drawn) [Example 81, N-[2-(1H-Indol-3-yl)ethyl]-2-{[methyl(5,6,7,8-tetrahydro-8-quinolinyl)amino]methyl}-1H-benzimidazole-4-carboxamide] is higher in IC50: less than 100 nM for the first, 500 to 10000 nM for the second. The first is the more potent here.

First: CN(Cc1nc2c(C(=O)NC3CCNCC3)cccc2[nH]1)C1CCCc2cccnc21 (stereo not drawn) [Example 77, 2-{[Methyl(5,6,7,8-tetrahydro-8-quinolinyl)amino]methyl}-N-4-piperidinyl-1H-benzimidazole-4-carboxamide]
Second: CN(Cc1nc2c(C(=O)NC3CCNC3)cccc2[nH]1)C1CCCc2cccnc21 (stereo not drawn) [Example 78, 2-{[Methyl(5,6,7,8-tetrahydro-8-quinolinyl)amino]methyl}-N-3-pyrrolidinyl-1H-benzimidazole-4-carboxamide]
The IC50 of the first is higher: 100 to 500 nM for the first, less than 100 nM for the second.

First: CN(C)CC(C)(C)CNC(=O)c1cccc2[nH]c(CN(C)C3CCCc4cccnc43)nc12 (stereo not drawn) [Example 80, N-[3-(Dimethylamino)-2,2-dimethylpropyl]-2-{[methyl(5,6,7,8-tetrahydro-8-quinolinyl)amino]methyl}-1H-benzimidazole-4-carboxamide]
Second: CN(C)CCCc1cccc2[nH]c(CN(C)C3CCCc4cccnc43)nc12 (stereo not drawn) [Example 94, N-({4-[3-(Dimethylamino)propyl]-1H-benzimidazol-2-yl}methyl)-N-methyl-5,6,7,8-tetrahydro-8-quinolinamine]
The IC50 of the first is higher: 100 to 500 nM for the first, less than 100 nM for the second. The second is the more potent here.

`CN(Cc1nc2c(C(=O)N3CCC(N)CC3)cccc2[nH]1)C1CCCc2cccnc21` (stereo not drawn) [Example 82, N-({4-[(4-Amino-1-piperidinyl)carbonyl]-1H-benzimidazol-2-yl}methyl)-N-methyl-5,6,7,8-tetrahydro-8-quinolinamine] and `CN(Cc1nc2c(C(=O)N3CCC(N)C3)cccc2[nH]1)C1CCCc2cccnc21` (stereo not drawn) [Example 83, N-({4-[(3-amino-1-pyrrolidinyl)carbonyl]-1H-benzimidazol-2-yl}methyl)-N-methyl-5,6,7,8-tetrahydro-8-quinolinamine] cannot be ordered by IC50: less than 100 nM for the first, less than 100 nM for the second.

`CC(=O)N1CCN(C(=O)c2cccc3[nH]c(CN(C)C4CCCc5cccnc54)nc23)CC1` (stereo not drawn) [Example 84, N-({4-[(4-Acetyl-1-piperazinyl)carbonyl]-1H-benzimidazol-2-yl}methyl)-N-methyl-5,6,7,8-tetrahydro-8-quinolinamine] and `CC(C)N1CCN(C(=O)c2cccc3[nH]c(CN(C)C4CCCc5cccnc54)nc23)CC1` (stereo not drawn) [Example 87, N-Methyl-N-[(4-{[4-(1-methylethyl)-1-piperazinyl]carbonyl}-1H-benzimidazol-2-yl)methyl]-5,6,7,8-tetrahydro-8-quinolinamine] fall in the same range of IC50: 100 to 500 nM for the first, 100 to 500 nM for the second.

First: CCS(=O)(=O)N1CCN(C(=O)c2cccc3[nH]c(CN(C)C4CCCc5cccnc54)nc23)CC1 (stereo not drawn) [Example 85, N-[(4-{[4-(Ethylsulfonyl)-1-piperazinyl]carbonyl}-1H-benzimidazol-2-yl)methyl]-N-methyl-5,6,7,8-tetrahydro-8-quinolinamine]
Second: CN1CCCN(C(=O)c2cccc3[nH]c(CN(C)C4CCCc5cccnc54)nc23)CC1 (stereo not drawn) [Example 86, N-Methyl-N-({4-[(4-methylhexahydro-1H-1,4-diazepin-1-yl)carbonyl]-1H-benzimidazol-2-yl}methyl)-5,6,7,8-tetrahydro-8-quinolinamine]
The IC50 of the first is higher: 100 to 500 nM for the first, less than 100 nM for the second.

`CN1CCC(NC(=O)c2cccc3[nH]c(CN(C)C4CCCc5cccnc54)nc23)CC1` (stereo not drawn) [Example 88, N-(1-methyl-4-piperidinyl)-2-{[methyl(5,6,7,8-tetrahydro-8-quinolinyl)amino]methyl}-1H-benzimidazole-4-carboxamide] and `CN(C)C1CCN(C(=O)c2cccc3[nH]c(CN(C)C4CCCc5cccnc54)nc23)C1` (stereo not drawn) [Example 89, N-[(4-{[3-(Dimethylamino)-1-pyrrolidinyl]carbonyl}-1H-benzimidazol-2-yl)methyl]-N-methyl-5,6,7,8-tetrahydro-8-quinolinamine] fall in the same range of IC50: 100 to 500 nM for the first, 100 to 500 nM for the second.

`CN(CCc1c[nH]cn1)C(=O)c1cccc2[nH]c(CN(C)C3CCCc4cccnc43)nc12` (stereo not drawn) [Example 90, N-[2-(1H-imidazol-4-yl)ethyl]-N-methyl-2-{[methyl(5,6,7,8-tetrahydro-8-quinolinyl)amino]methyl}-1H-benzimidazole-4-carboxamide] and `CC1CNCCN1C(=O)c1cccc2[nH]c(CN(C)C3CCCc4cccnc43)nc12` (stereo not drawn) [Example 91, N-methyl-N-({4-[(2-methyl-1-piperazinyl)carbonyl]-1H-benzimidazol-2-yl}methyl)-5,6,7,8-tetrahydro-8-quinolinamine] cannot be ordered by IC50: less than 100 nM for the first, less than 100 nM for the second.

`CN(Cc1nc2c(C(=O)N3CCCNCC3)cccc2[nH]1)C1CCCc2cccnc21` (stereo not drawn) [Example 93, N-{[4-(hexahydro-1H-1,4-diazepin-1-ylcarbonyl)-1H-benzimidazol-2-yl]methyl}-N-methyl-5,6,7,8-tetrahydro-8-quinolinamine] and `CN(Cc1nc2c(CCCN3CCCC3)cccc2[nH]1)C1CCCc2cccnc21` (stereo not drawn) [Example 95, N-Methyl-N-({4-[3-(1-pyrrolidinyl)propyl]-1H-benzimidazol-2-yl}methyl)-5,6,7,8-tetrahydro-8-quinolinamine] cannot be ordered by IC50: less than 100 nM for the first, less than 100 nM for the second.

`CN(Cc1nc2c(CCCN3CCCCC3)cccc2[nH]1)C1CCCc2cccnc21` (stereo not drawn) [Example 96, N-methyl-N-({4-[3-(1-piperidinyl)propyl]-1H-benzimidazol-2-yl}methyl)-5,6,7,8-tetrahydro-8-quinolinamine] and `CN(Cc1nc2c(CCCN)cccc2[nH]1)C1CCCc2cccnc21` (stereo not drawn) [Example 97, N-{[4-(3-aminopropyl)-1H-benzimidazol-2-yl]methyl}-N-methyl-5,6,7,8-tetrahydro-8-quinolinamine] cannot be ordered by IC50: less than 100 nM for the first, less than 100 nM for the second.

`CN(Cc1nc2c(NC(=O)CN)cccc2[nH]1)C1CCCc2cccnc21` (stereo not drawn) [Example 99, N^1-(2-{[methyl(5,6,7,8-tetrahydro-8-quinolinyl)amino]methyl}-1H-benzimidazol-4-yl)glycinamide] gave an IC50 of 100 to 500 nM.
